Assays:
Type in all cases: in vivo
[1] = tested on: barnyardgrass (Echinochloa crus-galli, ECHCG); experiment: Pre-emerge test, greenhouse herbicide activity screening; conditions: rating scale 0-100, 14 days after application
Outline: (§1)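 Visual ratings on a 0-100 scale (0 no damage, 100 all plants dead) were taken at 14 days after treatment. Rates of 15-1000 g ai/ha in acetone, 187 l/ha, were sprayed onto soil one day after planting (pre-emerge) or onto 2-3 leaf plants with 0.25% v/v surfactant (post-emerge).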

[2] = tested on: green foxtail (Setaria viridis, SETVI); experiment: as above; conditions: rating scale 0-100, 14 days after application
Outline: as §1

[3] = tested on: large crabgrass (Digitaria sanguinalis, DIGSA); experiment: as above; conditions: rating scale 0-100, 14 days after application
Outline: as §1

[4] = tested on: velvetleaf (Abutilon theophrasti, ABUTH); experiment: as above; conditions: rating scale 0-100, 14 days after application
Outline: as §1

[5] = tested on: sicklepod (Cassia obtusifolia, CASOB); experiment: as above; conditions: rating scale 0-100, 14 days after application
Outline: as §1

[6] = tested on: johnsongrass (Sorghum halepense, SORHA); experiment: as above; conditions: rating scale 0-100, 14 days after application
Outline: as §1

[7] = tested on: ivyleaf morningglory (Ipomoea hederacea, IPOHE); experiment: as above; conditions: rating scale 0-100, 14 days after application
Outline: as §1

[8] = tested on: lambsquarters (Chenopodium album, CHEAL); experiment: as above; conditions: rating scale 0-100, 14 days after application
Outline: as §1

[9] = tested on: upland rice (Oryza sp., var. Tebonnet, RICE); experiment: Pre-emerge test, crop safety; conditions: rating scale 0-100, 14 days after application
Outline: (§2)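 Fourteen days after spraying, crop and weed injury was graded visually from 0, no effect, to 100, every plant dead. Test substances were dissolved in acetone and applied at 15–1000 g ai/ha with a flat-fan nozzle. Application was either pre-emergence, one day after sowing, or post-emergence at the 2–3 leaf stage.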

[10] = tested on: field corn (Zea mays L., var. Dekalb 535, CORN); experiment: Pre-emerge test, crop safety; conditions: rating scale 0-100, 14 days after application
Outline: as §2

[11] = tested on: barnyardgrass (Echinochloa crus-galli, ECHCG); experiment: Post-emerge test, greenhouse herbicide activity screening; conditions: rating scale 0-100 (0 no damage, 100 complete death), 14 days after application
Outline: (§3)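 Applied at 15–1000 g ai/ha from acetone in 187 l/ha spray volume. Post-emergence applications included 0.25% v/v non-ionic surfactant and reached plants sown 8–21 days before. Pre-emergence applications were incorporated by surface watering. Efficacy or crop damage was rated on a 0–100 scale after 14 days.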

[12] = tested on: green foxtail (Setaria viridis, SETVI); experiment: as above; conditions: rating scale 0-100 (0 no damage, 100 complete death), 14 days after application
Outline: as §3

[13] = tested on: large crabgrass (Digitaria sanguinalis, DIGSA); experiment: as above; conditions: rating scale 0-100 (0 no damage, 100 complete death), 14 days after application
Outline: as §3

[14] = tested on: velvetleaf (Abutilon theophrasti, ABUTH); experiment: as above; conditions: rating scale 0-100 (0 no damage, 100 complete death), 14 days after application
Outline: as §3

[15] = tested on: sicklepod (Cassia obtusifolia, CASOB); experiment: as above; conditions: rating scale 0-100 (0 no damage, 100 complete death), 14 days after application
Outline: as §3

[16] = tested on: johnsongrass (Sorghum halepense, SORHA); experiment: as above; conditions: rating scale 0-100 (0 no damage, 100 complete death), 14 days after application
Outline: as §3

[17] = tested on: ivyleaf morningglory (Ipomoea hederacea, IPOHE); experiment: as above; conditions: rating scale 0-100 (0 no damage, 100 complete death), 14 days after application
Outline: as §3

[18] = tested on: lambsquarters (Chenopodium album, CHEAL); experiment: as above; conditions: rating scale 0-100 (0 no damage, 100 complete death), 14 days after application
Outline: as §3

[19] = tested on: redroot pigweed (Amaranthus retroflexus, AMARE); experiment: as above; conditions: rating scale 0-100 (0 no damage, 100 complete death), 14 days after application
Outline: as §3

[20] = tested on: common ragweed (Ambrosia artemisizfolia L., AMBEL); experiment: as above; conditions: rating scale 0-100 (0 no damage, 100 complete death), 14 days after application
Outline: as §3

[21] = tested on: upland rice (Oryza sp., var. Tebonnet, RICE); experiment: Post-emerge test, crop safety; conditions: rating scale 0-100 (0 no damage, 100 complete death), 14 days after application
Outline: as §1

[22] = tested on: field corn (Zea mays L., var. Dekalb 535, CORN); experiment: Post-emerge test, crop safety; conditions: rating scale 0-100 (0 no damage, 100 complete death), 14 days after application
Outline: as §1

[23] = tested on: redroot pigweed (Amaranthus retroflexus, AMARE); experiment: Pre-emerge test, greenhouse herbicide activity screening; conditions: rating scale 0-100, 14 days after application
Outline: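 Compounds in acetone were track-sprayed at 15-1000 g ai/ha (187 l/ha) on sandy loam pots: pre-emerge one day after seeding, post-emerge at 2-3 leaf stage with 0.25% v/v non-ionic surfactant. Phytotoxicity was rated 14 days later on a 0 (no damage) to 100 (complete death) scale.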

## CCCCCOC(=O)C(C)(Cl)Cc1c(OC)c(Cl)cc(F)c1-n1c(=O)cc(C(F)(F)F)n(C)c1=O (stereo not shown) [14-37]
[1]; 63 g ai/ha
  Pre-emerge herbicidal activity, phytotoxicity rating ECHCG: 0
[1]; 250 g ai/ha
  Pre-emerge herbicidal activity, phytotoxicity rating ECHCG: 99
[2]; 63 g ai/ha
  Pre-emerge herbicidal activity, phytotoxicity rating SETVI: 0
[2]; 250 g ai/ha
  Pre-emerge herbicidal activity, phytotoxicity rating SETVI: 95
[3]; 63 g ai/ha
  Pre-emerge herbicidal activity, phytotoxicity rating DIGSA: 0
[3]; 250 g ai/ha
  Pre-emerge herbicidal activity, phytotoxicity rating DIGSA: 100
[4]; 63 g ai/ha
  Pre-emerge herbicidal activity, phytotoxicity rating ABUTH: 90
[4]; 250 g ai/ha
  Pre-emerge herbicidal activity, phytotoxicity rating ABUTH: 100
[5]; 63 g ai/ha
  Pre-emerge herbicidal activity, phytotoxicity rating CASOB: 0
[5]; 250 g ai/ha
  Pre-emerge herbicidal activity, phytotoxicity rating CASOB: 0
[6]; 63 g ai/ha
  Pre-emerge herbicidal activity, phytotoxicity rating SORHA: 0
[6]; 250 g ai/ha
  Pre-emerge herbicidal activity, phytotoxicity rating SORHA: 0
[7]; 63 g ai/ha
  Pre-emerge herbicidal activity, phytotoxicity rating IPOHE: 0
[7]; 250 g ai/ha
  Pre-emerge herbicidal activity, phytotoxicity rating IPOHE: 0
[8]; 63 g ai/ha
  Pre-emerge herbicidal activity, phytotoxicity rating CHEAL: 100
[8]; 250 g ai/ha
  Pre-emerge herbicidal activity, phytotoxicity rating CHEAL: 100
[9]; 63 g ai/ha
  Pre-emerge phytotoxicity rating, crop damage RICE: 0
[9]; 250 g ai/ha
  Pre-emerge phytotoxicity rating, crop damage RICE: 80
[10]; 63 g ai/ha
  Pre-emerge phytotoxicity rating, crop damage CORN: 0
[10]; 250 g ai/ha
  Pre-emerge phytotoxicity rating, crop damage CORN: 0
[11]; Rate 63 g ai/ha
  Post-emerge Herbicidal Activity, phytotoxicity rating ECHCG: 100
[11]; Rate 250 g ai/ha
  Post-emerge Herbicidal Activity, phytotoxicity rating ECHCG: 100
[12]; Rate 63 g ai/ha
  Post-emerge Herbicidal Activity, phytotoxicity rating SETVI: 90
[12]; Rate 250 g ai/ha
  Post-emerge Herbicidal Activity, phytotoxicity rating SETVI: 100
[13]; Rate 63 g ai/ha
  Post-emerge Herbicidal Activity, phytotoxicity rating DIGSA: 80
[13]; Rate 250 g ai/ha
  Post-emerge Herbicidal Activity, phytotoxicity rating DIGSA: 100
[14]; Rate 63 g ai/ha
  Post-emerge Herbicidal Activity, phytotoxicity rating ABUTH: 100
[14]; Rate 250 g ai/ha
  Post-emerge Herbicidal Activity, phytotoxicity rating ABUTH: 100
[15]; Rate 63 g ai/ha
  Post-emerge Herbicidal Activity, phytotoxicity rating CASOB: 20
[15]; Rate 250 g ai/ha
  Post-emerge Herbicidal Activity, phytotoxicity rating CASOB: 50
[16]; Rate 63 g ai/ha
  Post-emerge Herbicidal Activity, phytotoxicity rating SORHA: 0
[16]; Rate 250 g ai/ha
  Post-emerge Herbicidal Activity, phytotoxicity rating SORHA: 30
[17]; Rate 63 g ai/ha
  Post-emerge Herbicidal Activity, phytotoxicity rating IPOHE: 30
[17]; Rate 250 g ai/ha
  Post-emerge Herbicidal Activity, phytotoxicity rating IPOHE: 100
[18]; Rate 63 g ai/ha
  Post-emerge Herbicidal Activity, phytotoxicity rating CHEAL: 100
[18]; Rate 250 g ai/ha
  Post-emerge Herbicidal Activity, phytotoxicity rating CHEAL: 100
[19]; Rate 63 g ai/ha
  Post-emerge Herbicidal Activity, phytotoxicity rating AMARE: 100
[19]; Rate 250 g ai/ha
  Post-emerge Herbicidal Activity, phytotoxicity rating AMARE: 100
[20]; Rate 63 g ai/ha
  Post-emerge Herbicidal Activity, phytotoxicity rating AMBEL: 100
[20]; Rate 250 g ai/ha
  Post-emerge Herbicidal Activity, phytotoxicity rating AMBEL: 100
[21]; Rate 63 g ai/ha
  Post-emerge phytotoxicity rating RICE (crop damage): 70
[21]; Rate 250 g ai/ha
  Post-emerge phytotoxicity rating RICE (crop damage): 100
[22]; Rate 63 g ai/ha
  Post-emerge phytotoxicity rating CORN (crop damage): 20
[22]; Rate 250 g ai/ha
  Post-emerge phytotoxicity rating CORN (crop damage): 95
[23]; 63 g ai/ha
  Pre-emerge herbicidal activity, phytotoxicity rating AMARE: 100
[23]; 250 g ai/ha
  Pre-emerge herbicidal activity, phytotoxicity rating AMARE: 100
